Patent publication US4221907A, “Substituted O-α-D and O-β-D-multi-galactopyranosyl and glucopyranosyl 1→4 and 1→6 galactopyranosyl 1→6 α-D-glucopyranoses” (American Cyanamid Company, priority 1979, dated 1980)
Counter-ions that a name gives are not always drawn.

What was measured:
human C1 = human C1 (Homo sapiens, UniProt P09871); experiment: Test Code 026 (C1 inhibitor): activated human C1 destroys fluid phase human C2 in presence of C4; assay type: biochemical; conditions: activity in wells, twofold serial dilution; higher well number indicates higher activity
Chain of human C1 (P09871 16-688): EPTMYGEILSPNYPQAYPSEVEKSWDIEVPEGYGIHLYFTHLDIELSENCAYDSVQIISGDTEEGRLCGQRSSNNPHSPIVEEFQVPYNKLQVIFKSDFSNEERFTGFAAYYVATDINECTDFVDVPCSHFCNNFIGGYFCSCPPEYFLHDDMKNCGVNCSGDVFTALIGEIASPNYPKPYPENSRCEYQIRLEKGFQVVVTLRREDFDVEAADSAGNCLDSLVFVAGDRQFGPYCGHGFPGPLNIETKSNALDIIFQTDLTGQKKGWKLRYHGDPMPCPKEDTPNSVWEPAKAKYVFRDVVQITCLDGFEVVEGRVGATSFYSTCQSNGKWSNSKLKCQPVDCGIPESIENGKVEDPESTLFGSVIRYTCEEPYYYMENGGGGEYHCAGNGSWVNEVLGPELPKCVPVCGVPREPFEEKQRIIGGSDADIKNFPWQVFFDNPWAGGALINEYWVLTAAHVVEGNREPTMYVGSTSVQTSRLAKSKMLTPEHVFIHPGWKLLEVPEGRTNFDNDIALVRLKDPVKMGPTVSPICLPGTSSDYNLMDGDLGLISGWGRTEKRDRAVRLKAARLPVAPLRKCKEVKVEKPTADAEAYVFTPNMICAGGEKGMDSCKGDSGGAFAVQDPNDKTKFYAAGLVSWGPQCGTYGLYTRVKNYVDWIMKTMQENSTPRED
Chain of human C1 (P00736 18-705 partner): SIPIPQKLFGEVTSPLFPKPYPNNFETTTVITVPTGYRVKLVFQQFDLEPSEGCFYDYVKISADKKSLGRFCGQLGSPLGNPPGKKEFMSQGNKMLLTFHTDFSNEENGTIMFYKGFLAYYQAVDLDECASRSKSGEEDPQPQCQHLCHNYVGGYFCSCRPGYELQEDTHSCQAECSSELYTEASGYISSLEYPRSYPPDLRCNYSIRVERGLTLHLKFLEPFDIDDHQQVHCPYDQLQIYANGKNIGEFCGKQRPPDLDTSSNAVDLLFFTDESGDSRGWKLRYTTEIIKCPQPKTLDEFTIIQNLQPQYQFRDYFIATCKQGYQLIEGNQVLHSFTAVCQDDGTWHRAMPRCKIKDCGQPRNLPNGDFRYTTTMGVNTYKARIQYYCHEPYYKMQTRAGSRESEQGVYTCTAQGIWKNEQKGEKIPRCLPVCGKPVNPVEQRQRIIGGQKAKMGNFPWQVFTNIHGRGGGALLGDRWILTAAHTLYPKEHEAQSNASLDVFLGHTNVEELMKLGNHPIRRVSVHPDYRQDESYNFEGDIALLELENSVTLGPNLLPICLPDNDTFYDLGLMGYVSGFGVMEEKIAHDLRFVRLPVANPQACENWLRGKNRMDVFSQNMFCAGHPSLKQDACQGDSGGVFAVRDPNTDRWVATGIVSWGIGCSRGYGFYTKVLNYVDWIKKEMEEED
Chain of human C1 (P02745 23-245 partner): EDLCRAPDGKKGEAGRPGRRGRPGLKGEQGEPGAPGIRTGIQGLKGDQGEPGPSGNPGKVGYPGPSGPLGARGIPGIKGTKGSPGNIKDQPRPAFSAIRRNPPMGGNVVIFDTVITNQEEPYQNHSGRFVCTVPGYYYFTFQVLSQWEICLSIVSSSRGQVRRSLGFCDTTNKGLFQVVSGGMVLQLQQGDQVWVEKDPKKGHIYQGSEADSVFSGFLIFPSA
Chain of human C1 (P02746 28-253 partner): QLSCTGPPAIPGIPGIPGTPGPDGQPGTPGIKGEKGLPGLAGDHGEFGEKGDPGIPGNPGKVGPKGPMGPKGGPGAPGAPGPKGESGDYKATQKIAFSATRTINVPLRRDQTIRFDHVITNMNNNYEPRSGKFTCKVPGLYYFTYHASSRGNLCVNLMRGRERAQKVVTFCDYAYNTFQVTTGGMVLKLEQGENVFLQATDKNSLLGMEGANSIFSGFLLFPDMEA
Chain of human C1 (P02747 29-245 partner): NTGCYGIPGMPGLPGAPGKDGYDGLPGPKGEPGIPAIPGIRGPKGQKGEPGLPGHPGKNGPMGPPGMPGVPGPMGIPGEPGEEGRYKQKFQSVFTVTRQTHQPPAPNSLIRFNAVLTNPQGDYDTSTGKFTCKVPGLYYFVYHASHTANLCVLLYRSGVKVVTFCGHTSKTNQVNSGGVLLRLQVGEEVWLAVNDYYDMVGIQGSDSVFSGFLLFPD
From the text: (§1) An active inhibitor protects C2 from C1 and C4; (ii) Test Code 035 (C3-C9 inhibitor)--This test determines the ability of the late components of human complement (C3-C9) to lyse EAC 142 in the presence of appropriate dilutions of the test compound. An active inhibitor protects EAC 142 from lysis by human C3-C9; (iii) Test Code 036 (C-Shunt inhibitor)--In this test human erythrocytes rendered fragile are lysed in autologous serum via the shunt pathway activated by cobra venom factor in the presence of appropriate dilutions of the test compound. Inhibition of the shunt pathway results in failure of lysis; (iv) Forssman Vasculitis Test--Here, the well known complement dependent lesion, Forssman vasculitis, is produced in guinea pigs by intradermal injection of rabbit anti-Forssman antiserum. The lesion is measured in terms of diameter, edema and hemorrhage and the extent to which a combined index of these is inhibited by prior intraperitoneal injection of the test compound at 200 mg/kg is then reported, unless otherwise stated; (v) Forssman Shock Test--Lethal shock is produced in guinea pigs by an i.v. injection of anti-Forssman antiserum and the harmonic mean death time of treated guinea pigs is compared with that of the simultaneous controls; (vi) Complement Level Reduction Test--In this test, the above dosed guinea pigs, or others are bled for serum and the complmenet level is determined in undiluted serum by the capillary tube method of U.S. Pat. No. 3,876,376 and compared to undosed control guinea pigs; (vii) Cap 50 Test--Here, appropriate amounts of the test compound are added to a pool of guinea pig serum in vitro, after which the undiluted serum capillary tube assay referred to above is run. The concentration of compound inhibiting 50% is reported.
(§2) **Activity in wells, a serial dilution assay; higher well number indicate
(§3) higher activity. The serial dilutions are twofold-

whole complement = experiment: In vivo activity (Guinea Pig): serum whole complement by capillary tube assay after dosing; conditions: Intraperitoneal, 200 mg/kg
human complement (C3-C9) = experiment: Test Code 035 (C3-C9 inhibitor): lysis of EAC 142 by late components of human complement; assay type: biochemical; conditions: activity in wells, twofold serial dilution; higher well number indicates higher activity
From the text: as §1, §2, §3

shunt pathway = experiment: Test Code 036 (C-Shunt inhibitor): lysis of human erythrocytes in autologous serum via shunt pathway activated by cobra venom factor; assay type: biochemical; conditions: activity in wells, twofold serial dilution; higher well number indicates higher activity
From the text: as §1, §2, §3

Row | Compound | C1 026 Wells (human C1) | In vivo Activity (Guinea Pig) % Inhibition (whole complement; 30 min) [%] | In vivo Activity (Guinea Pig) % Inhibition (whole complement; 60 min) [%] | In vivo Activity (Guinea Pig) % Inhibition (whole complement; 120 min) [%] | C-Late 035 Wells (human complement (C3-C9)) | Shunt Inhibition 036 Wells (shunt pathway)
1 | O=S(=O)(O)OC[C@H]1O[C@H](OC[C@H]2O[C@H](OS(=O)(=O)O)[C@H](OS(=O)(=O)O)[C@@H](OS(=O)(=O)O)[C@@H]2OS(=O)(=O)O)[C@H](OS(=O)(=O)O)[C@@H](OS(=O)(=O)O)[C@H]1OS(=O)(=O)O | +8 Wells |  |  |  |  | 
2 | O=S(=O)(O)OC[C@H]1O[C@@H](OC[C@H]2O[C@H](OC[C@H]3O[C@H](OS(=O)(=O)O)[C@H](OS(=O)(=O)O)[C@@H](OS(=O)(=O)O)[C@@H]3OS(=O)(=O)O)[C@H](OS(=O)(=O)O)[C@@H](OS(=O)(=O)O)[C@H]2OS(=O)(=O)O)[C@H](OS(=O)(=O)O)[C@@H](OS(=O)(=O)O)[C@H]1OS(=O)(=O)O [drawing 6, O-β-D-galactopyranosyl(1→6)-O-α-D-galactopyranosyl(1→6)-α-D-glucopyranose [gal 1β,6 gal 1α,6 glc] undecakis (H-sulfate), undecasalt with trimethylamine] | +9 Wells |  |  |  |  | 
3 | O=S(=O)(O)OC[C@H]1O[C@@H](OC[C@H]2O[C@H](OC[C@H]3O[C@H](OS(=O)(=O)O)[C@H](OS(=O)(=O)O)[C@@H](OS(=O)(=O)O)[C@@H]3OS(=O)(=O)O)[C@H](OS(=O)(=O)O)[C@@H](OS(=O)(=O)O)[C@H]2OS(=O)(=O)O)[C@H](OS(=O)(=O)O)[C@@H](OS(=O)(=O)O)[C@H]1OS(=O)(=O)O [drawing 7, O-β-D-galactopyranosyl(1→6)-O-α-D-galactopyranosyl(1→6)-α-D-glucopyranose [gal 1β,6 gal 1α,6 glc] undecakis (H-sulfate), undecasodium salt] | +9 Wells | -30 | -17 | -56 |  | 
4 | O=S(=O)(O)OC[C@H]1O[C@H](OC[C@H]2O[C@@H](OC[C@H]3O[C@H](OC[C@H]4O[C@H](OS(=O)(=O)O)[C@H](OS(=O)(=O)O)[C@@H](OS(=O)(=O)O)[C@@H]4OS(=O)(=O)O)[C@H](OS(=O)(=O)O)[C@@H](OS(=O)(=O)O)[C@H]3OS(=O)(=O)O)[C@H](OS(=O)(=O)O)[C@@H](OS(=O)(=O)O)[C@@H]2OS(=O)(=O)O)[C@H](OS(=O)(=O)O)[C@@H](OS(=O)(=O)O)[C@H]1OS(=O)(=O)O [drawing 8, O-α-D-galactopyranosyl(1→6)-O-β-D-glucopyranosyl(1→6)-O-α-D-galactopyranosyl(1→6)-α-D-glucopyranose [gal 1α,6 glc 1β,6 gal 1α,6 glc] tetradecakis (H-sulfate), tetradecasalt with trimethylamine] | +9 Wells |  |  |  | +1 Wells | +5 Wells
5 | O=S(=O)(O)OC[C@H]1O[C@@H](OC[C@H]2O[C@H](OC[C@H]3OC(OS(=O)(=O)O)[C@H](OS(=O)(=O)O)[C@@H](OS(=O)(=O)O)[C@@H]3OS(=O)(=O)O)[C@H](OS(=O)(=O)O)[C@@H](OS(=O)(=O)O)[C@H]2OS(=O)(=O)O)[C@H](OS(=O)(=O)O)[C@@H](OS(=O)(=O)O)[C@@H]1O[C@H]1O[C@H](COS(=O)(=O)O)[C@@H](OS(=O)(=O)O)[C@H](OS(=O)(=O)O)[C@H]1OS(=O)(=O)O (stereo partly drawn) [drawing 10, O-α-D-glucopyranosyl(1→4)-O-β-D-glucopyranosyl(1→6)-O-α-D-galactopyranosyl(1→6)-D-glucopyranose [glc 1α,4 glc 1β,6 gal 1α,6 glc] tetradecakis (H-sulfate), tetradecasalt with trimethylamine] | +9 Wells |  |  |  | +1 Wells | +5 Wells
6 | O=S(=O)(O)OC[C@H]1O[C@@H](OC[C@H]2O[C@H](OC[C@H]3O[C@H](OS(=O)(=O)O)[C@H](OS(=O)(=O)O)[C@@H](OS(=O)(=O)O)[C@@H]3OS(=O)(=O)O)[C@H](OS(=O)(=O)O)[C@@H](OS(=O)(=O)O)[C@H]2OS(=O)(=O)O)[C@H](OS(=O)(=O)O)[C@@H](OS(=O)(=O)O)[C@@H]1O[C@@H]1O[C@H](COS(=O)(=O)O)[C@@H](OS(=O)(=O)O)[C@H](OS(=O)(=O)O)[C@H]1OS(=O)(=O)O [drawing 12, O-β-D-glucopyranosyl(1→4)-O-β-D-glucopyranosyl(1→6)-O-α-D-galactopyrranosyl(1→6)-α-D-glucopyranose [glc 1β,4 glc 1β,6 gal 1α,6 glc] tetradecakis (H-sulfate), tetradecasalt with trimethylamine] | +9 Wells |  |  |  |  | +4 Wells
7 | O=S(=O)(O)OC[C@H]1O[C@@H](OC[C@H]2O[C@H](OC[C@H]3O[C@H](OS(=O)(=O)O)[C@H](OS(=O)(=O)O)[C@@H](OS(=O)(=O)O)[C@@H]3OS(=O)(=O)O)[C@H](OS(=O)(=O)O)[C@@H](OS(=O)(=O)O)[C@H]2OS(=O)(=O)O)[C@H](OS(=O)(=O)O)[C@@H](OS(=O)(=O)O)[C@@H]1O[C@@H]1O[C@H](COS(=O)(=O)O)[C@@H](OS(=O)(=O)O)[C@H](OS(=O)(=O)O)[C@H]1OS(=O)(=O)O [drawing 13, O-β-D-glucopyranosyl(1→4)-O-β-D-glucopyranosyl(1→6)-O-α-D-galactopyranosyl(1→6)-α-D-glucopyranose [glc 1β,4 glc 1β,6 gal 1α,6 glc] tetradecakis (H-sulfate), tetradecasodium salt] | +9 Wells | -25 | -34 | -60 |  | 
8 | O=S(=O)(O)OC[C@H]1O[C@@H](OC[C@H]2O[C@H](OC[C@H]3O[C@H](OS(=O)(=O)O)[C@H](OS(=O)(=O)O)[C@@H](OS(=O)(=O)O)[C@@H]3OS(=O)(=O)O)[C@H](OS(=O)(=O)O)[C@@H](OS(=O)(=O)O)[C@H]2OS(=O)(=O)O)[C@H](OS(=O)(=O)O)[C@@H](OS(=O)(=O)O)[C@@H]1O[C@H]1O[C@H](COS(=O)(=O)O)[C@@H](O[C@H]2O[C@H](COS(=O)(=O)O)[C@@H](OS(=O)(=O)O)[C@H](OS(=O)(=O)O)[C@H]2OS(=O)(=O)O)[C@H](OS(=O)(=O)O)[C@H]1OS(=O)(=O)O [drawing 14, O-α-D-glucopyranosyl(1→4)-O-α-D-glucopyranosyl(1→4)-O-β-D-glucopyranosyl(1→6)-O-α-D-galactopyranosyl(1→6)-α-D-glucopyranose [(glc 1α,4)2 glc 1β,6 gal 1α,6 glc] heptadecakis(H-sulfate), heptadecasalt with trimethylamine] | +9 Wells |  |  |  | +1 Wells | 
9 | O=S(=O)(O)OC[C@H]1O[C@@H](OC[C@H]2O[C@H](OC[C@H]3O[C@H](OS(=O)(=O)O)[C@H](OS(=O)(=O)O)[C@@H](OS(=O)(=O)O)[C@@H]3OS(=O)(=O)O)[C@H](OS(=O)(=O)O)[C@@H](OS(=O)(=O)O)[C@H]2OS(=O)(=O)O)[C@H](OS(=O)(=O)O)[C@@H](OS(=O)(=O)O)[C@@H]1O[C@H]1O[C@H](COS(=O)(=O)O)[C@@H](O[C@H]2O[C@H](COS(=O)(=O)O)[C@@H](OS(=O)(=O)O)[C@H](OS(=O)(=O)O)[C@H]2OS(=O)(=O)O)[C@H](OS(=O)(=O)O)[C@H]1OS(=O)(=O)O [drawing 15, O-α-D-glucopyranosyl(1→4)-O-α-D-glucopyranosyl(1→4)-O-β-D-glucopyranosyl(1→6)-O-α-D-galactopyranosyl(1→6)-α-D-glucopyranose [(glc 1α,4)2 glc 1β,6 gal 1α,6 glc] heptadecakis(H-sulfate), heptadecasodium salt] | +9 Wells |  |  |  | +2 Wells | +6 Wells
10 | O=S(=O)(O)OC[C@H]1O[C@@H](OC[C@H]2O[C@H](OC[C@H]3OC(OS(=O)(=O)O)[C@H](OS(=O)(=O)O)[C@@H](OS(=O)(=O)O)[C@@H]3OS(=O)(=O)O)[C@H](OS(=O)(=O)O)[C@@H](OS(=O)(=O)O)[C@H]2OS(=O)(=O)O)[C@H](OS(=O)(=O)O)[C@@H](OS(=O)(=O)O)[C@@H]1O[C@H]1O[C@H](COS(=O)(=O)O)[C@@H](O[C@H]2O[C@H](COS(=O)(=O)O)[C@@H](O[C@H]3O[C@H](COS(=O)(=O)O)[C@@H](O[C@H]4O[C@H](COS(=O)(=O)O)[C@@H](O[C@H]5O[C@H](COS(=O)(=O)O)[C@@H](O[C@H]6O[C@H](COS(=O)(=O)O)[C@@H](OS(=O)(=O)O)[C@H](OS(=O)(=O)O)[C@H]6OS(=O)(=O)O)[C@H](OS(=O)(=O)O)[C@H]5OS(=O)(=O)O)[C@H](OS(=O)(=O)O)[C@H]4OS(=O)(=O)O)[C@H](OS(=O)(=O)O)[C@H]3OS(=O)(=O)O)[C@H](OS(=O)(=O)O)[C@H]2OS(=O)(=O)O)[C@H](OS(=O)(=O)O)[C@H]1OS(=O)(=O)O (stereo partly drawn) [drawing 16, O-α-D-glucopyranosyl(1→4)-O-α-D-glucopyranosyl(1→4)-O-α-D-glucopyranosyl(1→4)-O-α-D-glucopyranosyl(1→4)-O-α-D-glucopyranosyl(1→4)-O-α-D-glucopyranosyl(1→4)-O-β-D-glucopyranosyl(1→6)-O-α-D-galactopyranosyl(1→6)-D-glucopyranose [(glc 1α,4)6 glc 1β,6 gal 1α,6 glc] nonacosakis (H-sulfate), non-acosasalt with trimethylamine] | +10 Wells |  |  |  | +1 Wells | +5 Wells
